Experiments:
[1] = cited from earlier work
[2] = Dissolution studies of arsenic salts in 100 mL water with stirring at room temperature (pH 7 and pH 1-2); format: physicochemical; conditions: for Dissolution Time at pH 1-2 / Final pH after dissolution / Dissolution Time at pH 7: 100 mL, stirring, room temperature
[3] = Trial 1: test dissolution of arsenic trioxide solely in sodium bicarbonate solution; format: physicochemical; conditions: 50 mg in 2540 mg sodium bicarbonate / approximately 27.2 mls water, with heating
Protocol: 2540 mg of Sodium Bicarbonate was dissolved in approximately 27.2 mls water (dissolved in less than 5 minutes). 50 mg Arsenic Trioxide was then added to this bicarbonate solution.

[4] = Dissolution of 1 mg arsenic trioxide capsule in 0.1M HCl and purified water with 0.5% BKC; format: physicochemical; conditions: 1 mg capsule RX500950.01, 500 ml medium, 37° C., paddle 50 rpm
Protocol: To manufacture the components for insertion into the capsule all ingredients were sieved through a 500 μm sieve into a sealable jar and blended for 20 minutes in a tumble blender. The blended powder was filled into the Size 4 white hard gelatin capsules at a fill weight of 140 mg.
For the dissolution experiments the medium was 0.1M HCl and purified water with a volume of 500 ml also containing 0.5% benzalkonium chloride (BKC) at 37° C. The paddle stir speed was 50 rpm. The capsule shell disrupted within three minutes and all contents were expelled in less than five minutes. Only 5% arsenic trioxide was dissolved after 20 minutes. Even after 19 hours only 60% was dissolved. The presence of the citric acid reduced the pH of the medium from ˜8.0 to ˜7.3. Given the anticipated increase in solubility at a higher pH, these experiments were repeated at a higher pH as indicated in the tables below wherein the mean and range values represented percentage dissolution of the arsenic trioxide.

[5] = Dissolution of arsenic trioxide in 0.1M NaOH (pH 13); format: physicochemical
Protocol: A further dissolution experiment was conducted in a solution of 0.1M NaOH (pH 13) and, as expected, more arsenic trioxide could be dissolved with a 100% level reached between 15-20 minutes as indicated in the table below.

[6] = all three mediums: simulated gastric fluid pH 1.24, pH 4.5, pH 7.0; 150 mls, 37° C., spin bar
Protocol: 100 mg of arsenic trioxide was dissolved in 10 mL of 0.5M NaOH with heat (<ten minutes). 250 mg Sodium Carbonate was then added (dissolves almost straight away) and excess water evaporated.
Dissolution experiments were then carried out on the AC01 at 3 different pH levels. […] Prior to addition of the capsules 150 mls of the dissolution solution was heated to 37° C. and the solution contained a spin bar at a speed of 2. The appropriate capsule was then added.

[7] = not dissolved within the time given

Compound: O=C([O-])O.[Na+] [Sodium Bicarbonate]
- pH 0.1M solution [1]: 8.3

Compound: O=[As][O-].[Na+] [Sodium meta arsenite, sodium meta arsenite]
- Dissolution Time at pH 1-2 [2]: 55 seconds - Final pH after
- Final pH after dissolution ([2]; dissolution at pH 1-2): dissolution = 1.27
- Final pH after dissolution ([2]; dissolution at pH 7): pH after dissolution = 10.2
- Time to dissolve at pH 1-2 ([2]; pH 1-2): less than one
- Time to dissolve at pH 7 ([2]; pH 7): less than 2 minutes

Compound: Arsenic trioxide
- Dissolution in sodium bicarbonate solution [3]: would not dissolve even with heating
- arsenic trioxide dissolved ([4]; after 20 minutes): 5%
- arsenic trioxide dissolved ([4]; after 19 hours): 60%
- Dissolution Time at pH 1-2 [2, 7]: Not dissolved in 3 hours
- Dissolution Time at pH 7 [2, 7]: Not dissolved in 3 hours
- Time at which 100% dissolution level is reached [5]: 15 to 20 min
- % Recovered (weight Corrected) Mean ([5]; 5 minutes): 12%
- % Recovered (weight Corrected) Mean ([5]; 10 minutes): 65%
- % Recovered (weight Corrected) Mean ([5]; 15 minutes): 96%
- % Recovered (weight Corrected) Mean ([5]; 20 minutes): 109%
- % Recovered (weight Corrected) Mean ([5]; 25 minutes): 116%
- % Recovered (weight Corrected) Mean ([5]; 30 minutes): 114%

Compound: Sodium arsenic carbonate [AC01]
- Dissolution Time at pH 1-2 [2]: <5-10 seconds - Final pH
- Dissolution Time at pH 7 [2]: 40 seconds - Final pH after
- Final pH after dissolution ([2]; dissolution at pH 1-2): after dissolution = 1.13
- Final pH after dissolution ([2]; dissolution at pH 7): dissolution = pH 8.95
- Time to dissolution of powder from capsule [6]: less than two

From US10493099B2, “Compositions containing arsenic and their use in methods of treatment” (Eupharma Pty Ltd, priority 2015, dated 2019)
